# Reference: patent US20250296942A1, “Phosphonate-Based Coordination Complexes and Methods of Preparation and Use Thereof” (University of Puerto Rico, priority 2021, published 2025)
# Experiments:
# [1] = tested on: human breast cancer MDA-MB-231 cell line; assay: AlamarBlue cytotoxicity, ZOLE and nano-Ca@ZOLE, MDA-MB-231; format: cell-based; settings: for IC50: Homo sapiens
# Protocol: (§1) Cell culture methods: The MDA-MB-231 cell line was cultured in DMEM, 1% Pen-Strep, and 10% FBS at 37° C. in 5% CO2. The hFOB 1.19 cell line was cultured in 1:1 DMEM:F-12, 0.3 mg/mL G418, and 10% FBS at 34° C. in 5% CO2. Cell passages were performed weekly at 80% of cell confluency, and media was exchanged twice a week.
# (§2) Cell treatments: Both cell lines were treated with ZOLE (control) and nano-Ca@ZOLE (experimental). First, to determine the half-maximal inhibitory concentration (IC50) two-fold serial dilutions of ZOLE (0-200 μM) were prepared. Both cell lines (MDA-MB-231 and hFOB 1.19) were seeded in 96 well plates at 2.5×10^5 cell/mL. The cells were incubated for 24 h at 37° C. (MDA-MB-231) and 34° C. (hFOB 1.19), respectively. After an initial incubation period, both cell lines were treated with 100 μL of the ZOLE solutions previously prepared, and incubation was performed for 24, 48, and 72 h at the respective incubation temperatures. For both cell lines, media (MDA-MB-231: DMEM, Pen-Strep and hFOB 1.19: DMEM, F-12, G418) were used with control groups. AlamarBlue® assay was utilized to determine cell proliferation; for this, 10% of AlamarBlue® solution in PBS was prepared. Finally, media was removed from the 96 well plates, 100 μL of 10% AlamarBlue® solution was added, and the cells were incubated for 4 h at the conditions previously set forth herein. After the AlamarBlue® assay, fluorescence (λexc=560 nm, m=590 nm) was evaluated employing an Infinite M200 PRO Tecan Microplate Reader. Live cells were assessed comparing viability of the control group (100%) with cells treated with the ZOLE solutions. The nonlinear regression method using Graph Pad Prism 8 was applied to fit the dose-response curves (% cell live vs concentration) and determined the IC50 values for ZOLE.
# (§3) The percentage of relative cell live (% RCL) for ZOLE (control) and nano-Ca@ZOLE (experimental) were investigated at selected concentrations (1.9, 3.8, 7.5, and 15 μM) in both cell lines. Treatments at these concentrations were carried out at 24, 48, and 72 h for ZOLE and nano-Ca@ZOLE. The cell seeding and AlamarBlue® assay were completed as described above for IC50 determination in both cell lines. Graph Pad Prism 8 was utilized to plot the % RCL found at concentrations of 1.9, 3.8, 7.5, and 15 μM after 24, 48, and 72 h of treatment. All experiments were performed in triplicates and the data was statistically treated using mean, standard deviation, and the coefficient of variation percentage (% CV).
# In this Example, the human breast cancer MDA-MB-231 and the osteoblast-like hFOB 1.19 cell lines were selected to assess cytotoxicity effects of nano-Ca@ZOLE nanocrystals. […] While, the immortalized human fetal hFOB 1.19 cell line is a homogeneous model that allows the study of osteoblast differentiation, these cells were employed to imitate the normal human bone microenvironment. To determine the IC50 values against MDA-MB-231 and hFOB 1.19 cell lines, concentrations of 0-200 μM of ZOLE were employed.
# [2] = Dissolution of ZOLE and ZOLE-Ca form II in FaSSGF; format: physicochemical
# Protocol: For ZOLE and ZOLE-Ca form II, dissolution measurements were performed in fasted-state simulated gastric fluid (FaSSGF). […] Absorbance measurements were performed on an Agilent Technologies Cary Series UV-Vis Spectrophotometer, Cary 100 UV-Vis model; using the UV Cary Scan software version v.20.0.470. All measurements were performed with a 400-200 nm scan.
# (§4) Dissolution assays employed a maximum concentration of 0.05 mg/mL of ZOLE, which corresponded to the clinically utilized dosage of these BP.
# To further investigate if the ZOLE-based BPCCs presented pH-dependent degradation, dissolution of ZOLE-Ca Form II in FaSSGF was performed.
# [3] = Dissolution of ZOLE and ZOLE-based BPCCs in PBS (UV-Vis 208 nm); format: physicochemical
# Protocol: Rate measurements were recorded for the reagent grade ZOLE, ZOLE-Ca forms I and II, ZOLE-Mg forms I and II, ZOLE-Zn forms I and II in PBS, against a reagent blank. […] Absorbance measurements were performed on an Agilent Technologies Cary Series UV-Vis Spectrophotometer, Cary 100 UV-Vis model; using the UV Cary Scan software version v.20.0.470. All measurements were performed with a 400-200 nm scan.
# Dissolution of ZOLE-based BPCCs was compared to that of ZOLE (active ingredient of Reclast@), to assess the structural stability of these materials in PBS and FaSSGF.
# as §4
# [4] = tested on: normal osteoblast-like hFOB 1.19 cell line; assay: AlamarBlue cytotoxicity, ZOLE and nano-Ca@ZOLE, hFOB 1.19; format: cell-based, human; settings: for IC50: Homo sapiens
# Protocol: as §1, §2, §3
# In this Example, the human breast cancer MDA-MB-231 and the osteoblast-like hFOB 1.19 cell lines were selected to assess cytotoxicity effects of nano-Ca@ZOLE nanocrystals. […]
# [5] = Hydroxyapatite (HA) binding assay of ZOLE and nano-Ca@ZOLE
# Protocol: Hydroxyapatite (HA) binding assay: For the binding assay of nano-Ca@ZOLE, 20 mg of hydroxyapatite (HA) were exposed to 3 mL of a nano-Ca@ZOLE in PBS solution (0.5 mg/mL), for 0-11 days at 37° C. As control groups, nano-Ca@ZOLE and HA, both in PBS, were employed. As a comparative method, the binding assay for ZOLE “as received” was performed employing the same parameters as for the nanocrystals. For the experimental groups (HA-nano-Ca@ZOLE and HA-ZOLE), collection was performed in duplicate. Samples were collected each day for 11 consecutive days. After each time point, supernatant was collected and centrifuged (1,500 rpm, 8 min). Absorbance measurements were performed at 208 nm (λmax) to determine the percentage of ZOLE and nano-Ca@ZOLE bound to HA. Solid samples of HA, HA-ZOLE, and HA-nano-Ca@ZOLE were characterized by EDS.
# The ability of nano-Ca@ZOLE to bind under simulated physiological conditions to the main constituent of the bone microenvironment, hydroxyapatite (HA), was probed through a binding assay. The binding to HA was determined by monitoring the decrease in the ZOLE concentration of the supernatant using absorption measurements (λmax=208 nm).
smiles,measurement,setting,value
"O=P(O)(O)C(O)(Cn1ccnc1)P(=O)(O)O [ZOLE, zoledronic acid]",% RCL (relative cell live),"[1]; 1.9 μM, time not stated",~100%
same,% RCL,"[1]; 3.8 μM, time not stated",~100%
same,% RCL,"[1]; 15 μM, 48 h",80±2%
same,% RCL,"[1]; 15 μM, 72 h",58±2%
same,IC50,[1]; 24 h,> 200 µM
same,IC50,[1]; 48 h,> 200 µM
same,IC50,[1]; 72 h,35 µM
same,time to reach maximum dissolution,[2]; FaSSGF pH 1.6,3 h
same,dissolution / equilibrium solubility (maximum ZOLE released),"[2]; FaSSGF pH 1.6, 37 °C",100%
same,time to reach maximum dissolution,[3]; PBS pH 7.4,30 min
same,dissolution / equilibrium solubility (maximum ZOLE released),"[3]; PBS pH 7.4, 37 °C",100%
same,% RCL / cell death,"[4]; 1.9-15 μM, 24, 48, 72 h",no significant cell death
same,IC50,[4]; 24 h,> 200 µM
same,IC50,[4]; 48 h,86 ± 3 µM
same,IC50,[4]; 72 h,49 ± 4 µM
same,time to reach maximum binding to HA,[5]; PBS pH 7.4,8 days
same,maximum binding to HA,"[5]; PBS pH 7.4, 37 °C, 0-11 days",82%
same,bound to HA,"[5]; PBS pH 7.4, 37 °C, 1 day (24 h)",15%
